What was measured:
CaBdf1 BD2 [1] = molecular target: T1, CaBdf1 BD2 (Candida albicans, UniProt Q5A4W8); assay: HTRF inhibition assay of BD binding to H4ac4 peptide; conditions: for inhibition of CaBdf1 BD2: HTRF
T1 sequence (Q5A4W8 383-492 limits assumed): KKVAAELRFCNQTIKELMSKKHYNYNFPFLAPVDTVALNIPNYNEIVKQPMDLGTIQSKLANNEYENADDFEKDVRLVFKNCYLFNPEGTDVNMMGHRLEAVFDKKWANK
Description: (§1) FIG. 7. Homogeneous time-resolved fluorescence (HTRF) assay. a. Assay configuration. A biotinylated tetra-acetylated histone peptide is bound to streptavidin beads which are coupled to a terbium-based donor fluorophore, lumi-Tb cryptate. GST-tagged bromodomain is bound by an anti-GST antibody coupled to the acceptor fluorophore, an organic molecule termed D2. Peptide binding by the bromodomain brings the donor and acceptor within FRET distance. In this situation, excitation of the donor at 337 nm causes energy transfer to the […], whose emitted fluorescence is monitored at 665 nm in a time-resolved manner so as to eliminate transient background fluorescence. b-d. Binding of biotinylated tetra-acetylated H4 (H4ac4) peptide by the BD1 bromodomains from human Brd4 (b), S. cerevisiae Bdf1 (c) and C. albicans Bdf1 (d) as measured by an increase in HTRF signal with increasing peptide concentration.
(§2) A key consideration in establishing fungal BET BD inhibition as a feasible chemotherapeutic strategy is whether these domains can be targeted by small-molecule inhibitors without antagonizing human BET function. To probe the similarity between the ligand binding pockets of C. albicans and human BET BDs, we asked whether human BET inhibitors could inhibit CaBdf1 BDs.

Brd4 BD1 = Brd4 BD1 (Homo sapiens, UniProt O60885); assay: Isothermal titration calorimetry (ITC); format: binding
C. albicans = assay: Growth of C. albicans in vitro (liquid culture growth assay); format: cell-based
Description: FIG. 8. CaBdf1 BDs are insensitive to human BET inhibitors. (a) HTRF inhibition assays performed on BD1 and BD2 from CaBdf1 and human Brd4 to evaluate the effects of four human BET inhibitors. Inhibition curves are shown as closed (BD1) and open (BD2) circles in green (Brd4) and magenta (Bdf1). IC50 values are summarized below each graph. (b) Thermal stability of the indicated BET BDs in the presence and absence of BET inhibitors determined by differential scanning fluorimetry. The thermal shift (ΔTm) for each inhibitor is indicated. Curves obtained in the presence (thick lines) or absence (thin lines) are plotted for CaBDF1 BD1 (solid magenta), CaBDF1 BD2 (dashed magenta) and human Brd4 (green). […] Experiments have been performed in the presence of doxycycline, which represses the pTetO-BDF1 allele.
FIG. 13. Identification of a CaBdf1-BD1 inhibitor that phenocopies BD1 inactivation. (a) Chemical structure of dibenzothiazepinone compound MS5. (b) HTRF assay showing that MS5 inhibits CaBdf1-BD1 preferentially over CaBdf1-BD2 and with weak selectivity compared to hBrd4-BD1. (c) ITC experiment showing binding of MS5 towards the indicated BD. (d) Effect of MS5 on the growth of C. albicans. The first allele is indicated below the graph, the second is pMET-BDF1 (top) orpTetO-BDF1 (bottom). Strains were grown in the presence of doxycycline or methionine/cysteine, respectively, to repress expression from the second allele. MS5 compromises growth when CaBdf1-BD2 is inactivated by deletion or point-mutation. Statistical test is a two-sided paired t-test performed on ≥5 biological replicates (*p=0.01 to 0.05; **p=0.001 to 0.01; ***p<0.001). (e) Dose-response experiment showing the effect of MS5 on Bdf1 mutant strains.
We next tested the effect of the identified hit compounds on the growth of C. albicans in vitro. […] We therefore tested compounds that inhibited CaBdf1-BD1 with micromolar IC50 values but which were unselective or only weakly selective for the fungal BD.

CaBdf1 BD1 [2] = molecular target: T2, CaBdf1 BD1 (Candida albicans, UniProt Q5A4W8); assay: Isothermal titration calorimetry (ITC); format: binding, C. albicans
T2 sequence (Q5A4W8 206-315 limits assumed): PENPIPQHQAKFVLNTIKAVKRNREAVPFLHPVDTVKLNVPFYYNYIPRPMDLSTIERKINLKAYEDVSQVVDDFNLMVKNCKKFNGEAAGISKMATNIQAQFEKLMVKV

CaBdf1 BD1 [3] = molecular target: T2, CaBdf1 BD1; assay: HTRF inhibition assay of BD binding to H4ac4 peptide
Description: as §1, with “b-d.” for “b-d. Binding of biotinylated tetra-acetylated H4 (H4ac4) peptide by the BD1 bromodomains from human Brd4 (b), S. cerevisiae Bdf1 (c) and C. albicans Bdf1 (d) as measured by an increase in HTRF signal with increasing peptide concentration.”
as §2

CaBdf1 BD2 [4] = molecular target: T1, CaBdf1 BD2; assay: Isothermal titration calorimetry (ITC); format: binding, C. albicans

Question: Which results are given for `O=C1c2ccccc2Sc2cc(-c3noc(-c4cnccn4)n3)ccc2N1C1CC1` [MS4]?
Answer: inhibition of CaBdf1 BD2 (CaBdf1 BD2 [1]): only modest inhibition; binding (ITC) (Brd4 BD1): no significant binding was detected; effect on the growth of C. albicans in vitro (C. albicans): little effect

Question: Which results are given for `CN1C(=O)c2ccccc2Sc2cc(NC(=O)C3CCCO3)ccc21` (centres unmarked) [MS5, N-(10-methyl-11-oxo-10,11-dihydrodibenzo[b,f][1,4]thiazepin-7-yl)tetrahydrofuran-2-carboxamide]?
Answer: inhibition of CaBdf1 BD2 (CaBdf1 BD2 [1]): only a weak inhibitory effect; Kd / affinity (CaBdf1 BD1 [2]; ITC (MS5: HTRF and ITC assays)): low micromolar; IC50 (C. albicans; Candida albicans, read-out: IC50 (growth dose-response curve)): 40000 nM; effect on growth compared to vehicle (DMSO) (C. albicans; liquid culture, strains expressing WT Bdf1 or mutant Bdf1 inactivated in the first BD): little effect; effect on growth (C. albicans; strains inactivated in BD2): significantly compromised

Question: With `COc1cc2c(cc1-c1c(C)noc1C)ncc1[nH]c(=O)n([C@H](C)c3ccccn3)c12` [IBET-151, reference compound] as the compound, how does the “reduction in sensitivity relative to Brd4” value (CaBdf1 BD1 [3]; CaBdf1 BD1 vs corresponding Brd4 BD) read?
Answer: 60 fold

Question: What about the IC50 (CaBdf1 BD1 [3]; HTRF, strongest inhibition) of the same compound?
Answer: ~300 nM

Question: And the “effect on C. albicans growth” value (C. albicans; even when Bdf1 bromodomains are deleted, in the presence of doxycycline (represses pTetO-BDF1 allele))?
Answer: do not affect

Question: And the “effect on the growth of C. albicans in vitro” value (C. albicans)?
Answer: none of the BET inhibitors had any significant effect

Question: `Cc1sc2c(c1C)C(c1ccc(Cl)cc1)=N[C@@H](CC(=O)OC(C)(C)C)c1nnc(C)n1-2` [JQ1, reference compound] was tested. Which “binding (ITC)” value (CaBdf1 BD1 [2]; ITC) did it give?
Answer: no binding was detected

Question: What about the “binding (ITC)” value (CaBdf1 BD2 [4]; ITC) of the same compound?
Answer: no binding was detected

Question: `CCOC(=O)Nc1cc(-c2ccc(C)c(NS(C)(=O)=O)c2)nn2c(C)nnc12` [bromosporine, reference compound] was tested. Which IC50 (CaBdf1 BD2 [1]) did it give?
Answer: ~300 nM

Question: For `Cc1ccc(Nc2c(-c3ccc(O)cc3)nc3c(C)cccn23)cc1` [MS51, 4-(8-Methyl-3-(p-tolylamino)imidazo[1,2-a]pyridin-2-yl)phenol], which “selectivity relative to BD1 of either CaBdf1 or human Brd4” value (CaBdf1 BD2 [1]) is on record?
Answer: high selectivity

Question: And the Kd (CaBdf1 BD2 [4]; HTRF and ITC assays, read-out: affinity)?
Answer: 1000 to 2000 nM
